Several values for one entry are separate records, joined by “and”; a condition that tells them apart may be missing. Equal values may be shown once. Entries after “also recorded” stand apart in the source; their conditions may differ. Marks after values point to notes of the source that are not given here. Where only a bound is given, the exact number is not on record here.

Here are results for ten compounds from article PMC2566937 (Journal of medicinal chemistry, 2008).

Assay [1] has as its target T1, α1β2 wt GABAA receptor (Rattus norvegicus, UniProt P62813+P63138). The class given is cell-based.
For assay [2], the system named is GABA recognition site (GABAA receptors) in native cerebellar membranes. The assay can be described thus: [3H]muscimol binding, rat cerebellar membranes. Particulars: for pseudo-Hill coefficient η, cerebellum: against 6 nM [3H]muscimol, mean ± S.E.M.
Assay [3] deals with GABA recognition site (GABAA receptors) in native cortical membranes. The assay can be described thus: [3H]muscimol binding, rat cortical membranes. The settings on record: for Inhibition of muscimol binding at 100 μM (criterion for full binding analysis): cortical and cerebellar membranes (tissue not given); for pseudo-Hill coefficient η, cortex: against 6 nM [3H]muscimol, mean ± S.E.M.

For assay [4], the target named is T2, α3β3γ2 GABAA receptor (Rattus norvegicus, UniProt P20236+P63079).
Assay [5] concerns the target T3, α1β3γ2 GABAA receptor (Rattus norvegicus, UniProt P62813+P63079). Particulars: for Current induced by compound alone, % of maximal GABA-induced current: 1 mM compound.
In another assay the target is α5β3γ2 GABAA receptor (Rattus norvegicus, UniProt P19969+P63079).
The next assay concerns the target α4β3γ2 GABAA receptor (Rattus norvegicus, UniProt P28471+P63079). The settings on record: for Current induced by compound alone, % of maximal GABA-induced current: 1 mM compound.
The target in the next assay is α1R66Cβ2 GABAA receptor (Rattus norvegicus, UniProt P62813+P63138, R93C).
The target of assay [6] is T1, α1β2 wt GABAA receptor. Briefly: Cysteine modification by MTS reagent, oocyte voltage clamp, wt. It is filed as cell-based. The settings on record: data not shown.
Assay [7] addresses T4, α1F64Cβ2 GABAA receptor (Rattus norvegicus, UniProt P62813+P63138, F91C).
For assay [8], the target named is T2, α3β3γ2 GABAA receptor. It is filed as cell-based. The settings on record: 1 mM compound co-applied with approx. GABA EC20–25.
The target of the next assay is α1S68Cβ2 GABAA receptor (Rattus norvegicus, UniProt P62813+P63138, S95C). It is filed as cell-based. The settings on record: read-out: Inhibition of the EC20 GABA current.
In assay [9] the target is T4, α1F64Cβ2 GABAA receptor. The class given is cell-based.
Assay [10] concerns the target T3, α1β3γ2 GABAA receptor. The class given is cell-based. The settings on record: 1 mM compound co-applied with approx. GABA EC20–25.
[11] abbreviates: read-out: Inhibition of the EC20 GABA current.

With `C=C(C)[C@@H]1[C@H]2OC(=O)[C@@H]1[C@]1(O)C[C@H]3O[C@]34C(=O)O[C@H]2[C@]14C` [picrotoxinin, reference compound], the inhibition at 100 µM at α1β2 wt GABAA receptor [1] (read-out: Inhibition of 6a-induced currents) fell in the range of 80 to 90%.
For `Cl.NCc1nnc(S)o1` [6d, 5-Aminomethyl-3H-[1,3,4]oxadiazol-2-thione Hydrochloride], the “pseudo-Hill coefficient η, cerebellum” value in assay [2] is recorded as 0.96 ± 0.12. For the same compound, in assay [3], the “Inhibition of muscimol binding at 100 μM (criterion for full binding analysis)” value (shortened to “Inhibition of muscimol binding at 100 μM”) is given as “at least 30%” and the “pseudo-Hill coefficient η, cortex” value worked out at 0.92 ± 0.05.
In turn, `Cl.NCc1nnc(O)o1` [5d, 5-Aminomethyl-3H-[1,3,4]oxadiazol-2-one Hydrochloride] returned a 50% effective concentration (EC50) on α3β3γ2 GABAA receptor [4] of 1000 µM. In addition, the “Hill coefficient (direct activation)” value on α3β3γ2 GABAA receptor [4] (α3β3γ2, value of an extrapolated dose-response curve) was 0.81 ^*; on α1β3γ2 GABAA receptor [5], 0.99 ± 0.05; at α5β3γ2 GABAA receptor, 1.31 ± 0.12; at α4β3γ2 GABAA receptor, 1.56 ± 0.11. Besides, the “pseudo-Hill coefficient η, cerebellum” value in assay [2] is recorded as 0.90 ± 0.21. In addition, the “Inhibition of muscimol binding at 100 μM” value in [3] is reported as “at least 30%”. Moreover, the “pseudo-Hill coefficient η, cortex” value in assay [3] was 1.12 ± 0.13.
Turning to `CS(=O)(=S)OCCNC(=O)CCCC[C@@H]1SC[C@@H]2NC(=O)N[C@@H]21` (stereo partly shown) [MTSEA-biotin], the “Inhibition of subsequent GABA test currents, MTSEA-biotin alone (control)” value at α1R66Cβ2 GABAA receptor (30 μM MTSEA-biotin, α1R66Cβ2, n = 2) is 87% and 100%.
With `CS(=O)(=O)SCCS(=O)(=O)O` [MTSES^−, 2-sulfonatoethyl methanethiosulfonate], the “Inhibition of subsequent GABA EC50 current, MTSES− alone (control)” value on α1R66Cβ2 GABAA receptor (12 s, 2 mM MTSES−, α1R66Cβ2) came out at 91 ± 3%. Moreover, the “Inhibition of GABA EC50 currents after complete reaction with MTS reagent” value is given as 62 ± 3 (4) % at α1R66Cβ2 GABAA receptor (α1R66C + β2, % ± S.E.M.) and 89 ± 3 (4) % at α1F64Cβ2 GABAA receptor [7] (α1F64C + β2, % ± S.E.M.). Moreover, on α1R66Cβ2 GABAA receptor (α1R66Cβ2), the “Second-order reaction rate constant with the engineered cysteine” value turned out to be 48 ± 7 M⁻¹ s⁻¹. Also, the “Effect of MTS reagent on the GABA current” value at α1β2 wt GABAA receptor [6] is recorded as “did not affect the GABA current”. In addition, the “Reduction in subsequent GABA EC50 test currents, MTSES− alone (control)” value at α1F64Cβ2 GABAA receptor [7] (12 s, 10 μM MTSES−, α1F64Cβ2) was 87% and 87 ± 3%.
For the compound `Cl.Sc1nnc(C2CCNCC2)o1` [6a, 5-Piperidin-4-yl-3H-[1,3,4]oxadiazol-2-thione Hydrochloride], the inhibition at 1000 µM on α1β2 wt GABAA receptor [1] (setting [11]), on α1S68Cβ2 GABAA receptor and on α1F64Cβ2 GABAA receptor [9] (setting [11]) was greater than 90% in each case. Also, the “Potentiation of GABA-induced current” value on α3β3γ2 GABAA receptor [8] worked out at 114 ± 8%. Also, the “Current induced by compound alone, % of maximal GABA-induced current” value (“Current induced by compound alone, %” for short) at α1β3γ2 GABAA receptor [5] and on α4β3γ2 GABAA receptor was “less than 10%” in each case. Also, the “pseudo-Hill coefficient η, cerebellum” value in [2] is 1.03 ± 0.08. For the same compound, on α1F64Cβ2 GABAA receptor [9], the “6a EC50 relative to wt” value is recorded as 0.6 fold. Moreover, the “Inhibition of muscimol binding at 100 μM” value in [3] is given as “at least 30%”. For the same compound, the “pseudo-Hill coefficient η, cortex” value in assay [3] is reported as 0.99 ± 0.09.
As to `Cc1nnc(C2CCNCC2)o1.Cl` [compound 19, 4-(5-Methyl-[1,3,4]oxadiazol-2-yl)-piperidine Hydrochloride], the “Current induced by compound alone, %” value is “less than 10%” on α3β3γ2 GABAA receptor [4] (1 mM compound, α3β3γ2); “less than 10%” on α1β3γ2 GABAA receptor [5]; “less than 10%” at α5β3γ2 GABAA receptor (1 mM compound); “less than 10%” on α4β3γ2 GABAA receptor. Besides, the “Potentiation of GABA-induced current” value at α1β3γ2 GABAA receptor [10] stood at 21%; on α3β3γ2 GABAA receptor [8], 11%. For the same compound, the “pseudo-Hill coefficient η, cerebellum” value in assay [2] came to 0.91 ± 0.05. Besides, the “Inhibition of muscimol binding at 100 μM” value in assay [3] is listed as “at least 30%”. In assay [3], the “pseudo-Hill coefficient η, cortex” value is recorded as 0.88 ± 0.08.
With `Cl.NCCc1nnc(O)o1` [5g], the “pseudo-Hill coefficient η, cerebellum” value in [2] was 0.92 and 0.92 ± 0.11. Moreover, in assay [3], the “Inhibition of muscimol binding at 100 μM” value is recorded as “at least 30%”; the “pseudo-Hill coefficient η, cortex” value is 0.63 and 0.63 ± 0.06.
With `Cl.Oc1nnc(C2CCNCC2)o1` [5a, 5-Piperidin-4-yl-3H-[1,3,4]oxadiazol-2-one Hydrochloride], the “Effect of repeated application on subsequent GABA currents” value on α1R66Cβ2 GABAA receptor (repeated 10 s applications of 30 mM, α1R66Cβ2) is “did not decrease the subsequent GABA test currents; also recorded: did not irreversible alter the subsequent GABA currents”. Further, the “Potentiation of GABA-induced current” value at α3β3γ2 GABAA receptor [8] was 22 ± 11%. Further, the “Current induced by compound alone, %” value at α1β3γ2 GABAA receptor [5] and on α4β3γ2 GABAA receptor was “less than 10%” in each case. Further, the “pseudo-Hill coefficient η, cerebellum” value in [2] was 0.79 ± 0.06. In addition, in assay [3], the “Inhibition of muscimol binding at 100 μM” value is given as “at least 30%”. For the same compound, the “pseudo-Hill coefficient η, cortex” value in [3] came to 0.86 ± 0.10.
With `Oc1nnc(C2CCCCC2)o1` [9d, 5-Cyclohexyl-3H-[1,3,4]oxadiazole-2-one], the “Percent inhibition of [3H]muscimol binding, cerebellum, 100 μM” value in assay [2] (100 μM test compound, well-washed rat cerebellum membranes, mean ± S.D.) was −11 ± 11 (3) %.

The inhibition is the change of the read-out against control, counted positive when it falls. The term EC50 denotes the midpoint of the concentration-response curve. A lower EC50 goes with an effect from little substance.
